Measured values as given in patent US10941157B2, “Pesticidal compositions and uses thereof” (Gilead Apollo, LLC, priority 2015, dated 2021).
Values after ≈ are worked out from the molar mass of the structure shown.

Key:
Assay type in all cases: cell-based
[1] = system: Phytophthora capsici (Pc); assay: In vitro pathogen growth inhibition assay, Pc; conditions: 48 h, ≥90% inhibition, 48 hours vs 2% DMSO control, read-out: Compound Concentration (ppm) sufficient for ≥90% inhibition of growth, Pc
Summary of the method: (§1)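 Spores of Dm, Fv and Pc were diluted in 17% V8 liquid medium; Rs used 1.5 mm mycelial plugs in ¼ PDB. Compounds from 2.5 mg/ml DMSO stocks were combined with inoculum, growth was read by OD600 at 24 and 48 h with blank subtraction, and the reported value is the concentration giving ≥90% inhibition.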

[2] = system: Collectotrichum graminicola (Cg); assay: In vitro pathogen growth inhibition assay, Cg; conditions: 48 h, ≥90% inhibition; 48 hours vs 2% DMSO control; read-out: Compound Concentration (ppm) sufficient for ≥90% inhibition of growth, Cg
Summary of the method: (§2)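 Value reported is the compound concentration reaching ≥90% growth inhibition, from OD readings at 24 and 48 h after blank subtraction, confirmed visually. Inoculum was spores diluted in 17% V8 medium, except Rs, using 1.5 mm mycelial plugs in ¼ PDB; actual compound concentration corrected via OD600.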

[3] = system: Rhizoctonia solani (Rs); assay: In vitro pathogen growth inhibition assay, Rs (mycelial plugs); conditions: Rhizoctonia solani, 48 h, ≥90% inhibition; mycelial plugs; 48 hours vs 2% DMSO control; read-out: Compound Concentration (ppm) sufficient for ≥90% inhibition of growth, Rs
Summary of the method: as §1

[4] = system: Diplodia maydis (Dm); assay: In vitro pathogen growth inhibition assay, Dm; conditions: Stenocarpella maydis, 48 h, ≥90% inhibition; 48 hours vs 2% DMSO control; read-out: Compound Concentration (ppm) sufficient for ≥90% inhibition of growth, Dm
Summary of the method: as §1

[5] = system: Fusarium virguliforme (Fv); assay: In vitro pathogen growth inhibition assay, Fv; conditions: ≥90% inhibition, 48 hours vs 2% DMSO control, read-out: Compound Concentration (ppm) sufficient for ≥90% inhibition of growth, Fv
Summary of the method: as §1

[6] = system: Fusarium moniliforme (Fm); assay: In vitro pathogen growth inhibition assay, Fm; conditions: Fusarium verticillioides; ≥90% inhibition; 48 hours vs 2% DMSO control; read-out: Compound Concentration (ppm) sufficient for ≥90% inhibition of growth, Fm
Summary of the method: as §2

[7] = system: Botrtyis cinerea (Bc); assay: In vitro pathogen growth inhibition assay, Bc; conditions: 48 h, ≥90% inhibition; 48 hours vs 2% DMSO control; read-out: Compound Concentration (ppm) sufficient for ≥90% inhibition of growth, Bc
Summary of the method: as §2

[8] = system: Septoria tritici (St); assay: In vitro pathogen growth inhibition assay, St; conditions: Zymoseptoria tritici, 48 h, ≥90% inhibition; 48 hours vs 2% DMSO control; read-out: Compound Concentration (ppm) sufficient for ≥90% inhibition of growth, St
Summary of the method: as §2

Row | Structure (SMILES) | IC90 [1] [µg/mL] | IC90 [2] [µg/mL] | IC90 [3] [µg/mL] | IC90 [4] [µg/mL] | IC90 [5] [µg/mL] | IC90 [6] [µg/mL] | IC90 [7] [µg/mL] | IC90 [8] [µg/mL]
1 | COc1ccc(F)cc1[C@H](Cn1c(=O)n(C(C)(C)C(=O)N2CCCC2)c(=O)c2c(C)c(-n3nccn3)sc21)OCCO [Compound I-130] | 50 (≈ 83.2 µM) | 2 (≈ 3.33 µM) | ≥ 2 | ≥ 2 | ≥ 0.4 | 0.4 (≈ 0.666 µM) | 2 (≈ 3.33 µM) | ≥ 50
2 | COc1ccc(F)cc1[C@H](Cn1c(=O)n(C(C)(C)C(=O)N(C)C)c(=O)c2c(C)c(-n3nccn3)sc21)OC(C)C [Compound I-131] | > 50 | 10 (≈ 17.5 µM) | ≥ 0.4 | 2 (≈ 3.49 µM) | 0.4 (≈ 0.698 µM) | 0.4 (≈ 0.698 µM) | 0.4 (≈ 0.698 µM) | > 50
3 | CNC(=O)C(C)(C)n1c(=O)c2c(C)c(-n3nccn3)sc2n(C[C@H](OC(C)C)c2cc(F)ccc2OC)c1=O [Compound I-132] | > 50 | ≥ 2 | ≥ 2 | 10 (≈ 17.9 µM) | 0.4 (≈ 0.716 µM) | 0.4 (≈ 0.716 µM) | 2 (≈ 3.58 µM) | > 50
4 | COc1ccc(F)cc1[C@H](Cn1c(=O)n(C(C)(C)C(=O)N2CCCC2)c(=O)c2c(C)c(-n3nccn3)sc21)OC[C@H](C)O [Compound I-133] | 50 (≈ 81.3 µM) | 0.4 (≈ 0.651 µM) | ≥ 2 | 2 (≈ 3.25 µM) | 0.4 (≈ 0.651 µM) | 0.4 (≈ 0.651 µM) | 2 (≈ 3.25 µM) | ≥ 50
5 | COc1ccc(F)cc1[C@H](Cn1c(=O)n(C(C)(C)C(=O)NC(C)C)c(=O)c2c(C)c(-n3cccn3)sc21)OC[C@@H](C)O [Compound I-134] | ≥ 10 | 0.4 (≈ 0.665 µM) | ≥ 0.4 | ≥ 2 | 2 (≈ 3.32 µM) | 0.4 (≈ 0.665 µM) | 2 (≈ 3.32 µM) | ≥ 10
6 | COc1ccc(F)cc1[C@H](Cn1c(=O)n(C(C)(C)C(=O)N2CCCC2)c(=O)c2c(C)c(-n3cccn3)sc21)OC[C@@H](C)O [Compound I-135] | > 50 | 10 (≈ 16.3 µM) | ≥ 2 | ≥ 10 | 2 (≈ 3.26 µM) | 0.4 (≈ 0.652 µM) | 2 (≈ 3.26 µM) | 50 (≈ 81.5 µM)
7 | COc1ccc(F)cc1[C@H](Cn1c(=O)n(C(C)(C)C(=O)NC(C)C)c(=O)c2c(C)c(-n3cccn3)sc21)OC[C@H](C)O [Compound I-136] | > 50 | 10 (≈ 16.6 µM) | ≥ 2 | ≥ 10 | 2 (≈ 3.32 µM) | 0.4 (≈ 0.665 µM) | 2 (≈ 3.32 µM) | > 50
8 | COc1ccc(F)cc1[C@H](Cn1c(=O)n(C(C)(C)C(=O)NC(C)C)c(=O)c2c(C)c(-n3cccn3)sc21)OCC(C)(C)O [Compound I-137] | ≥ 50 | 2 (≈ 3.25 µM) | ≥ 2 | ≥ 2 | ≥ 0.4 | 0.4 (≈ 0.65 µM) | 2 (≈ 3.25 µM) | ≥ 10
9 | COc1ccc(F)cc1[C@H](Cn1c(=O)n(C(C)(C)C(=O)N2CCCC2)c(=O)c2c(C)c(-n3cccn3)sc21)OCC(C)(C)O [Compound I-138] | > 50 | 10 (≈ 15.9 µM) | ≥ 2 | ≥ 10 | 10 (≈ 15.9 µM) | 0.4 (≈ 0.637 µM) | 10 (≈ 15.9 µM) | > 50
10 | COCCO[C@@H](Cn1c(=O)n(C(C)C(=O)N2CCCC2)c(=O)c2c(C)c(-n3nccn3)sc21)c1cc(F)ccc1OC (some centres unmarked) [Compound I-139] | 50 (≈ 83.2 µM) | 10 (≈ 16.6 µM) | 2 (≈ 3.33 µM) | 10 (≈ 16.6 µM) | 0.4 (≈ 0.666 µM) | 0.4 (≈ 0.666 µM) | 2 (≈ 3.33 µM) | 50 (≈ 83.2 µM)
11 | COCCO[C@@H](Cn1c(=O)n([C@H](C)C(=O)N2CCCC2)c(=O)c2c(C)c(-n3nccn3)sc21)c1cc(F)ccc1OC [Compound I-140] | > 50 | 10 (≈ 16.6 µM) | 2 (≈ 3.33 µM) | 10 (≈ 16.6 µM) | 0.4 (≈ 0.666 µM) | 0.4 (≈ 0.666 µM) | 2 (≈ 3.33 µM) | > 50
12 | COCCO[C@@H](Cn1c(=O)n(CC(=O)N2CCCC2)c(=O)c2c(C)c(-n3nccn3)sc21)c1cc(F)ccc1OC [Compound I-141] | > 50 | ≥ 2 | 10 (≈ 17 µM) | 2 (≈ 3.41 µM) | ≥ 2 | 0.4 (≈ 0.682 µM) | 2 (≈ 3.41 µM) | > 50
13 | COc1ccc(F)cc1[C@H](Cn1c(=O)n(C(C)(C)C(=O)NC(C)C)c(=O)c2c(C)c(-n3nccn3)sc21)OCCC(N)=O [Compound I-142] | ≥ 50 | 10 (≈ 16.2 µM) | 2 (≈ 3.25 µM) | 50 (≈ 81.2 µM) | 0.4 (≈ 0.65 µM) | 0.4 (≈ 0.65 µM) | 2 (≈ 3.25 µM) | > 50
14 | COc1ccc(F)cc1[C@H](Cn1c(=O)n(C(C)(C)C(N)=O)c(=O)c2c(C)c(-n3cccn3)sc21)OC1CCOCC1 [Compound I-146] | > 50 | 10 (≈ 17.1 µM) | 50 (≈ 85.4 µM) | 50 (≈ 85.4 µM) | 50 (≈ 85.4 µM) | 2 (≈ 3.41 µM) | 2 (≈ 3.41 µM) | > 50
15 | COc1ccc(F)cc1[C@H](Cn1c(=O)n(C(C)(C)C(N)=O)c(=O)c2c(C)c(-n3cccn3)sc21)O[C@H]1CC[C@@H](O)CC1 [Compound I-150] | > 50 | 50 (≈ 83.4 µM) | 10 (≈ 16.7 µM) | ≥ 10 | 10 (≈ 16.7 µM) | 2 (≈ 3.34 µM) | 2 (≈ 3.34 µM) | > 50
16 | COc1ccccc1[C@H](Cn1c(=O)n(C(C)(C)C(=O)N2CC(O)C2)c(=O)c2c(C)c(-n3nccn3)sc21)OC1CCOCC1 [Compound I-156] | > 50 | 50 (≈ 80 µM) | 10 (≈ 16 µM) | 50 (≈ 80 µM) | 10 (≈ 16 µM) | 2 (≈ 3.2 µM) | 10 (≈ 16 µM) | > 50
17 | COc1ccccc1[C@H](Cn1c(=O)n(C(C)(C)C(=O)NC(C)C)c(=O)c2c(C)c(-n3cccn3)sc21)OC1CCOCC1 [Compound I-157] | > 50 | ≥ 10 | 50 (≈ 82 µM) | 10 (≈ 16.4 µM) | ≥ 10 | 2 (≈ 3.28 µM) | 10 (≈ 16.4 µM) | ≥ 50
18 | COc1ccc(F)cc1[C@H](Cn1c(=O)n(C(C)(C)C(=O)O)c(=O)c2c(C)c(-n3nccn3)sc21)OC1CCC(=O)CC1 [Compound I-158] | 50 (≈ 83.4 µM) | > 50 | 10 (≈ 16.7 µM) | 50 (≈ 83.4 µM) | > 50 | 2 (≈ 3.34 µM) | 10 (≈ 16.7 µM) | > 50
19 | COc1ccc(F)cc1[C@H](Cn1c(=O)n(C(C)(C)C(=O)N2CCCC2)c(=O)c2c(C)c(-n3cccn3)sc21)OCCO [Compound I-159] | > 50 | ≥ 10 | ≥ 10 | ≥ 50 | 2 (≈ 3.34 µM) | 2 (≈ 3.34 µM) | 10 (≈ 16.7 µM) | > 50
